Test results as given in ChEMBL document CHEMBL1153944, “Exploration of click reaction for the synthesis of modified nucleosides as chitin synthase inhibitors” (Bioorg Med Chem, 2009).
Values after ≈ are worked out from the molar mass of the structure shown.

Columns and labels:
Candida albicans = assay: Antifungal activity against Candida albicans by broth microdilution test; format: functional, organism-based
Cryptococcus neoformans = assay: Antifungal activity against Cryptococcus neoformans by broth microdilution test; format: functional, organism-based
Fusarium oxysporum = assay: Antifungal activity against Fusarium oxysporum by broth microdilution test; format: functional, organism-based
Benjaminiella poitrasii [1] = assay: Inhibition of chitin synthase activity in Benjaminiella poitrasii at 4 ug/mL
Benjaminiella poitrasii [2] = assay: Antifungal activity against Benjaminiella poitrasii assessed as inhibition of germ tube formation at 4 ug/mL after 6 hrs; format: functional
Benjaminiella poitrasii [3] = assay: Antifungal activity against Benjaminiella poitrasii at 4 ug/mL by standard broth microdilution technique; format: functional

Row | SMILES | IC50 (Candida albicans) [µg/mL] | MIC90 (Candida albicans) [µg/mL] | IC50 (Cryptococcus neoformans) [µg/mL] | MIC90 (Cryptococcus neoformans) [µg/mL] | IC50 (Fusarium oxysporum) [µg/mL] | MIC90 (Fusarium oxysporum) [µg/mL] | inhibition (Benjaminiella poitrasii [1]) [%] | inhibition at 4 µg/mL (Benjaminiella poitrasii [2]) [%] | inhibition at 4 µg/mL (Benjaminiella poitrasii [3]) [%]
1 | Cc1cccc(OCc2cn(C[C@H]3O[C@@H](n4ccc(=O)[nH]c4=O)[C@@H]4OC(C)(C)O[C@@H]43)nn2)c1 | 34 (≈ 74.6 µM) | 128 (≈ 281 µM) | 8 (≈ 17.6 µM) | 64 (≈ 141 µM) | 32 (≈ 70.3 µM) | 64 (≈ 141 µM) | 82.1 | 69.2 | 34.4
2 | CC1(C)O[C@@H]2[C@H](O1)[C@@H](Cn1cc(COc3cccc4ccccc34)nn1)O[C@H]2n1ccc(=O)[nH]c1=O | 34 (≈ 69.2 µM) | > 128 | 32 (≈ 65.1 µM) | 64 (≈ 130 µM) | 32 (≈ 65.1 µM) | 64 (≈ 130 µM) | 76.9 | 72.7 | 32.4
3 | C[C@@H]1[C@H](O)[C@@H](C)/C=C/C=C/C=C/C=C/C=C/C=C/C=C/[C@H](O[C@@H]2O[C@H](C)[C@@H](O)[C@H](N)[C@@H]2O)C[C@@H]2O[C@](O)(C[C@@H](O)C[C@@H](O)[C@H](O)CC[C@@H](O)C[C@@H](O)CC(=O)O[C@H]1C)C[C@H](O)[C@H]2C(=O)O [AMPHOTERICIN B] | – | 2 (≈ 2.16 µM) | – | 16 (≈ 17.3 µM) | – | 16 (≈ 17.3 µM) | – | – | –
4 | CC1(C)O[C@@H]2[C@H](O1)[C@@H](Cn1cc(COC(=O)C(=O)c3ccccc3)nn1)O[C@H]2n1ccc(=O)[nH]c1=O | > 128 | > 128 | 16 (≈ 32.2 µM) | > 128 | 55 (≈ 111 µM) | 106 (≈ 213 µM) | 80 | 72 | 51.5
5 | CC1(C)O[C@@H]2[C@H](O1)[C@@H](Cn1cc(COC(=O)Cc3ccc(O)cc3)nn1)O[C@H]2n1ccc(=O)[nH]c1=O | > 128 | > 128 | 128 (≈ 256 µM) | > 128 | 35 (≈ 70.1 µM) | 57 (≈ 114 µM) | 73.4 | 61.5 | 28.2
6 | CC1(C)O[C@@H]2[C@H](O1)[C@@H](Cn1cc(COc3ccc(Cl)cc3)nn1)O[C@H]2n1ccc(=O)[nH]c1=O | 18 (≈ 37.8 µM) | 32 (≈ 67.2 µM) | 30 (≈ 63 µM) | 57 (≈ 120 µM) | 16 (≈ 33.6 µM) | 32 (≈ 67.2 µM) | 95.1 | 58.1 | 34.6
7 | CC1(C)O[C@@H]2[C@H](O1)[C@@H](Cn1cc(COc3ccc(F)cc3)nn1)O[C@H]2n1ccc(=O)[nH]c1=O | 9 (≈ 19.6 µM) | > 128 | 64 (≈ 139 µM) | 128 (≈ 279 µM) | 128 (≈ 279 µM) | > 128 | 84.1 | 64.7 | 9.43
8 | CC1(C)O[C@@H]2[C@H](O1)[C@@H](Cn1cc(COc3ccccc3)nn1)O[C@H]2n1ccc(=O)[nH]c1=O | 68 (≈ 154 µM) | > 128 | 4 (≈ 9.06 µM) | 8 (≈ 18.1 µM) | 128 (≈ 290 µM) | > 128 | 77.2 | 45.1 | 21.5
9 | CC1(C)O[C@@H]2[C@H](O1)[C@@H](Cn1cc(COC(=O)Cc3ccc(Cl)cc3Cl)nn1)O[C@H]2n1ccc(=O)[nH]c1=O | 32 (≈ 57.9 µM) | > 128 | 32 (≈ 57.9 µM) | 64 (≈ 116 µM) | > 128 | > 128 | 67 | 57.1 | 38.6
10 | C[C@@H]([C@H](N)C(=O)N[C@H](C(=O)O)[C@H]1O[C@@H](n2ccc(=O)[nH]c2=O)[C@H](O)[C@@H]1O)[C@H](O)c1ccc(O)cn1 [NIKKOMYCIN] | 32 (≈ 64.6 µM) | 64 (≈ 129 µM) | 16 (≈ 32.3 µM) | 30 (≈ 60.6 µM) | 6 (≈ 12.1 µM) | 8 (≈ 16.1 µM) | 96.6 | > 95 | 45.5
11 | CC1(C)O[C@@H]2[C@H](O1)[C@@H](Cn1cc(COC(=O)CCl)nn1)O[C@H]2n1ccc(=O)[nH]c1=O | 32 (≈ 72.4 µM) | 66 (≈ 149 µM) | 125 (≈ 283 µM) | > 128 | 8 (≈ 18.1 µM) | 16 (≈ 36.2 µM) | 75.7 | 60 | 30.2
12 | COc1ccc(OCc2cn(C[C@H]3O[C@@H](n4ccc(=O)[nH]c4=O)[C@@H]4OC(C)(C)O[C@@H]43)nn2)cc1 | 16 (≈ 33.9 µM) | 24 (≈ 50.9 µM) | 35 (≈ 74.2 µM) | 49 (≈ 104 µM) | 70 (≈ 148 µM) | 124 (≈ 263 µM) | 68.5 | 71.4 | 29.3
13 | Cc1ccccc1CC(=O)OCc1cn(C[C@H]2O[C@@H](n3ccc(=O)[nH]c3=O)[C@@H]3OC(C)(C)O[C@@H]32)nn1 | 18 (≈ 36.2 µM) | 32 (≈ 64.3 µM) | 32 (≈ 64.3 µM) | 64 (≈ 129 µM) | 64 (≈ 129 µM) | > 128 | 36.4 | 67.2 | 27.3
14 | OC(Cn1cncn1)(Cn1cncn1)c1ccc(F)cc1F [FLUCONAZOLE] | 14 (≈ 45.7 µM) | 32 (≈ 104 µM) | – | 32 (≈ 104 µM) | – | 8 (≈ 26.1 µM) | – | – | –
15 | CC1(C)O[C@@H]2[C@H](O1)[C@@H](Cn1cc(COC(=O)COc3ccccc3)nn1)O[C@H]2n1ccc(=O)[nH]c1=O | 64 (≈ 128 µM) | > 128 | 128 (≈ 256 µM) | > 128 | 16 (≈ 32 µM) | 33 (≈ 66.1 µM) | 74 | 52.5 | 56.2
16 | CC1(C)O[C@@H]2[C@H](O1)[C@@H](Cn1cc(COc3ccc([N+](=O)[O-])cc3)nn1)O[C@H]2n1ccc(=O)[nH]c1=O | > 128 | > 128 | 14 (≈ 28.8 µM) | 32 (≈ 65.8 µM) | 32 (≈ 65.8 µM) | 64 (≈ 132 µM) | 77.8 | 78.2 | 17.4
17 | CC1(C)O[C@@H]2[C@H](O1)[C@@H](Cn1cc(COC(=O)Cc3ccccc3)nn1)O[C@H]2n1ccc(=O)[nH]c1=O | 18 (≈ 37.2 µM) | 32 (≈ 66.2 µM) | 18 (≈ 37.2 µM) | 31 (≈ 64.1 µM) | 16 (≈ 33.1 µM) | 32 (≈ 66.2 µM) | 71 | 75 | 31.9
